Data: US20250304563A1, “ACTIVATORS OF EFFECTOR T CELLS” (Orum Therapeutics, Inc., priority 2022, published 2025)

Columns and labels:
[1] = biological target: Cbl-b (36-427 aa truncated form, N-terminus Avi-tag) (Homo sapiens (Human), UniProt Q13191); assay: Cbl-b binding: TR-FRET displacement of BODIPY-FL probe
Procedure, shortened: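 IC50 from loss of terbium–BODIPY-FL TR-FRET signal as compounds compete off a fluorescent Cbl-b inhibitor probe (1 uM) for 1 h at RT. Protein: N-Avi-tagged human Cbl-b 36-427 on streptavidin-terbium, 20 mM HEPES pH 7.5 buffer.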

Human primary T cells [2] = assay: T cell activation: secreted IL-2; type: cell-based; conditions: 48 hours, fold over background normalized to Compound 141A; for IL-2 1 nM: 1 nM compound; for IL-2 10 nM: 10 nM compound; for IL-2 100 nM: 100 nM compound
Protocol: (§1) Human primary T cells were isolated from commercially available frozen peripheral blood mononuclear cells (HemaCare Corporation) or from fresh LeukoPaks (Research Blood Components). T cells were isolated through depletion of non-T cells using negative selection kit according to the manufacturer's protocol (Miltenyi Biotec, Human Pan T Cell Isolation Kit, 130-096-535). Isolated cells were cultured overnight at 37° C. with 5% CO2 and plated at 1×10^5 cells per well in XVivo-15 serum-free media (Lonza, 04-418Q) into 96 well plates coated with anti-CD3 (OKT3) antibody (ThermoFisher, 16-0037-85). To coat the plates for T cell capture, anti-CD3 antibody was diluted in PBS at 10 μg/mL and 100 μl added to each well. Plates were incubated at 4° C. overnight or at 37° C. for 2 hours and washed once with PBS before use. Serial dilutions of each compound were added in duplicates to the T cells to assess their effect on T cell activation. T cells treated with 5 μg/mL of CD28 antibody (ThermoFisher, 16-0289-85) or T cells stimulated by CD3 only were used as a control. Plates were incubated with the Cbl-b inhibitors for 48 hours at 37° C. with 5% CO2, and supernatants were subsequently analyzed for levels of the activation induced secreted cytokines IL-2 or IFN-y (BD Biosciences CBA Flex Beads, 558269, 558270). T cells were additionally stained with anti-CD69 antibody (Invitrogen, 12-0699-42 which labels a T cell activation associated membrane protein to and surface expression was measured by flow cytometry (ThermoFisher Attune NxT).
(§2) To control for natural inter-donor variability in T cell responses intrinsic to using primary human donor derived cells, secreted IL-2 and IFN-y measurements for each test compound were reported as the fold increase of the compound treated levels over background (antiCD3/CD28 treatment only) normalized to the values obtained for Compound 141A. Results for compound treatment-induced changes in CD69 levels are similarly reported as the fold increase due to compound treatment over anti-CD3 stimulated background only, normalized to values obtained for Compound 141A.
Normalized T cell IL-2 responses were sorted into ranges as follows: fold over background values between 1.41 and 1.8: range “X”, between 0.80 and 1.40: range “A”, values between 0.31 and 0.79: range “B” values between 0.10 and 0.30: range “C”, values between 0.01 and 0.09: range “D.”

Human primary T cells [3] = assay: T cell activation: secreted IFN-y; type: cell-based; conditions: 48 hours, fold over background normalized to Compound 141A; for IFN-y 1 nM: 1 nM compound; for IFN-y 10 nM: 10 nM compound; for IFN-y 100 nM: 100 nM compound
Protocol: as §1, §2
Normalized T cell IFN-y responses were sorted into ranges as follows: fold over background between 1.10 and 2.00: range “A”, values between 0.31 and 1.00: range “B;” values between 0.10 and 0.30: range “C”, and values between 0.01 and 0.09: range “D.”

Human primary T cells [4] = assay: T cell activation: CD69 surface expression by flow cytometry; type: cell-based; conditions: fold over anti-CD3 stimulated background normalized to Compound 141A; for CD69 1 nM: 1 nM compound; for CD69 10 nM: 10 nM compound; for CD69 100 nM: 100 nM compound
Protocol: as §1, §2
Similarly, bins for normalized CD69 levels were sorted into ranges as follows: fold over background values between 1.11 and 1.6: range “X”, values between 0.81 and 1.10: range “A”; values between 0.61 and 0.80: range “B;” values between 0.30 and 0.60: range “C”.

Cbl-b (36-427 aa truncated form, N-terminus Avi-tag), sequence (Q13191 36-427): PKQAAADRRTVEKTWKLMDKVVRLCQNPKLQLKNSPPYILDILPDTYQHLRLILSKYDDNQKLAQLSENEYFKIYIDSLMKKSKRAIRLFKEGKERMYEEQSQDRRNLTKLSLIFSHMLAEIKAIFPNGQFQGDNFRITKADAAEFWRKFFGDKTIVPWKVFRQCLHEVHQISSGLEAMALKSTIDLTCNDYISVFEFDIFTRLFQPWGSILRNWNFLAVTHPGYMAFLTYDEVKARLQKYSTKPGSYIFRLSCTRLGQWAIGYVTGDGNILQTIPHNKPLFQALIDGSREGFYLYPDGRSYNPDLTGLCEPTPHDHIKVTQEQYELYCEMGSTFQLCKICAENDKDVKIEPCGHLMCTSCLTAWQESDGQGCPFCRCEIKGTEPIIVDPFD

SMILES	IC50 [1]	IL-2 1 nM (Human primary T cells [2])	IL-2 10 nM (Human primary T cells [2])	IL-2 100 nM (Human primary T cells [2])	IFN-y 1 nM (Human primary T cells [3])	IFN-y 10 nM (Human primary T cells [3])	IFN-y 100 nM (Human primary T cells [3])	CD69 1 nM (Human primary T cells [4])	CD69 10 nM (Human primary T cells [4])	CD69 100 nM (Human primary T cells [4])
Cn1cnnc1CC1(c2cc(NCCC#N)nc(N3Cc4c(cc(CN5CCN(c6nccs6)CC5)cc4C(F)(F)F)C3=O)c2)COC1.O=C(O)C(F)(F)F [Compound 186, 3-((4-(3-((4-methyl-4H-1,2,4-triazol-3-yl)methyl)oxetan-3-yl)-6-(1-oxo-6-((4-(thiazol-2-yl)piperazin-1-yl)methyl)-4-(trifluoromethyl)isoindolin-2-yl)pyridin-2-yl)amino)propanenitrile; trifluoroacetic acid]	5.01 to 20 nM	D (values between 0.01 and 0.09: range “D.”)	D (values between 0.01 and 0.09: range “D.”)	D (values between 0.01 and 0.09: range “D.”)	C (values between 0.10 and 0.30: range “C”)	C (values between 0.10 and 0.30: range “C”)	B (values between 0.31 and 1.00: range “B;”)	C (values between 0.30 and 0.60: range “C”)	C (values between 0.30 and 0.60: range “C”)	C (values between 0.30 and 0.60: range “C”)
CSc1cc(CN2CCC[C@H](C)C2)cc2c1CN(c1cc([C@]3(c4nncn4C)C[C@H](C)C3)cc(N)n1)C2=O [Compound 174, 2-{6-amino-4-[(1r,3s)-3-methyl-1-(4-methyl-1,2,4-triazol-3-yl)cyclobutyl]pyridin-2-yl}-6-{[(3S)-3-methylpiperidin-1-yl]methyl}-4-(methylsulfanyl)-3H-isoindol-1-one]	5.01 to 20 nM	D (values between 0.01 and 0.09: range “D.”)	D (values between 0.01 and 0.09: range “D.”)	B (values between 0.31 and 0.79: range “B”)	B (values between 0.31 and 1.00: range “B;”)	B (values between 0.31 and 1.00: range “B;”)	B (values between 0.31 and 1.00: range “B;”)	C (values between 0.30 and 0.60: range “C”)	C (values between 0.30 and 0.60: range “C”)	B (values between 0.61 and 0.80: range “B;”)
CC#CC(=O)N1CCN(c2cc(C3(Cc4nncn4C)COC3)cc(N3Cc4c(cc(CN5CCC[C@H](C)C5)cc4C(F)(F)F)C3=O)n2)CC1 [Compound 137]	5.01 to 20 nM	C (values between 0.10 and 0.30: range “C”)	B (values between 0.31 and 0.79: range “B”)	B (values between 0.31 and 0.79: range “B”)	B (values between 0.31 and 1.00: range “B;”)	B (values between 0.31 and 1.00: range “B;”)	B (values between 0.31 and 1.00: range “B;”)	–	B (values between 0.61 and 0.80: range “B;”)	A (values between 0.81 and 1.10: range “A”)
CC1CC(c2cccc(N3Cc4c(cc(C(CO)N5CCC[C@H](C)C5)cc4C(F)(F)F)C3=O)c2)(c2nncn2C)C1 (stereo partly drawn) [Compound 152, 6-{2-hydroxy-1-[(3S)-3-methylpiperidin-1-yl]ethyl}-2-{3-[(1r,3s)-3-methyl-1-(4-methyl-1,2,4-triazol-3-yl)cyclobutyl]phenyl}-4-(trifluoromethyl)-3H-isoindol-1-one]	1 to 5 nM	C (values between 0.10 and 0.30: range “C”)	C (values between 0.10 and 0.30: range “C”)	C (values between 0.10 and 0.30: range “C”)	C (values between 0.10 and 0.30: range “C”)	B (values between 0.31 and 1.00: range “B;”)	B (values between 0.31 and 1.00: range “B;”)	C (values between 0.30 and 0.60: range “C”)	C (values between 0.30 and 0.60: range “C”)	A (values between 0.81 and 1.10: range “A”)

Second part, led by results:

IC50 [1]	SMILES	IL-2 1 nM (Human primary T cells [2])	IL-2 10 nM (Human primary T cells [2])	IL-2 100 nM (Human primary T cells [2])	IFN-y 1 nM (Human primary T cells [3])	IFN-y 10 nM (Human primary T cells [3])	IFN-y 100 nM (Human primary T cells [3])	CD69 1 nM (Human primary T cells [4])	CD69 10 nM (Human primary T cells [4])	CD69 100 nM (Human primary T cells [4])
1 to 5 nM	CCNc1cc(C2(Cc3nncn3C)COC2)cc(N2Cc3c(SC)cc(CN4CCCCC4)cc3C2=O)n1 [Compound 175, 2-[6-(ethylamino)-4-{3-[(4-methyl-1,2,4-triazol-3-yl)methyl]oxetan-3-yl}pyridin-2-yl]-4-(methylsulfanyl)-6-(piperidin-1-ylmethyl)-3H-isoindol-1-one]	D (values between 0.01 and 0.09: range “D.”)	D (values between 0.01 and 0.09: range “D.”)	C (values between 0.10 and 0.30: range “C”)	C (values between 0.10 and 0.30: range “C”)	B (values between 0.31 and 1.00: range “B;”)	B (values between 0.31 and 1.00: range “B;”)	C (values between 0.30 and 0.60: range “C”)	C (values between 0.30 and 0.60: range “C”)	B (values between 0.61 and 0.80: range “B;”)
5.01 to 20 nM	C=CC(=O)NCc1cc(C2(Cc3nncn3C)COC2)cc(N2Cc3c(cc(CN4CCC[C@H](C)C4)cc3C(F)(F)F)C2=O)n1 [Compound 116, N-[(4-{3-[(4-methyl-1,2,4-triazol-3-yl)methyl]oxetan-3-yl}-6-(6-{[(3S)-3-methylpiperidin-1-yl]methyl}-1-oxo-4-(trifluoromethyl)-3H-isoindol-2-yl)pyridin-2-yl)methyl]prop-2-enamide]	C (values between 0.10 and 0.30: range “C”)	C (values between 0.10 and 0.30: range “C”)	B (values between 0.31 and 0.79: range “B”)	C (values between 0.10 and 0.30: range “C”)	C (values between 0.10 and 0.30: range “C”)	B (values between 0.31 and 1.00: range “B;”)	–	C (values between 0.30 and 0.60: range “C”)	B (values between 0.61 and 0.80: range “B;”)
5.01 to 20 nM	CSCCNc1cc(C2(Cc3nncn3C)COC2)cc(N2Cc3c(cc(CN4CCC[C@H](C)C4)cc3C(F)(F)F)C2=O)n1 [Compound 103, 2-(4-{3-[(4-methyl-1,2,4-triazol-3-yl)methyl]oxetan-3-yl}-6-{[2-(methylsulfanyl)ethyl]amino}pyridin-2-yl)-6-{[(3S)-3-methylpiperidin-1-yl]methyl}-4-(trifluoromethyl)-3H-isoindol-1-one]	C (values between 0.10 and 0.30: range “C”)	C (values between 0.10 and 0.30: range “C”)	B (values between 0.31 and 0.79: range “B”)	C (values between 0.10 and 0.30: range “C”)	C (values between 0.10 and 0.30: range “C”)	B (values between 0.31 and 1.00: range “B;”)	–	C (values between 0.30 and 0.60: range “C”)	B (values between 0.61 and 0.80: range “B;”)
5.01 to 20 nM	CCSc1cc(C2(Cc3nncn3C)COC2)cc(N2Cc3c(cc(CN4CCC[C@H](C)C4)cc3C(F)(F)F)C2=O)n1 [Compound 107, 2-[6-(ethylsulfanyl)-4-{3-[(4-methyl-1,2,4-triazol-3-yl)methyl]oxetan-3-yl}pyridin-2-yl]-6-{[(3S)-3-methylpiperidin-1-yl]methyl}-4-(trifluoromethyl)-3H-isoindol-1-one]	B (values between 0.31 and 0.79: range “B”)	B (values between 0.31 and 0.79: range “B”)	A (between 0.80 and 1.40: range “A”)	B (values between 0.31 and 1.00: range “B;”)	B (values between 0.31 and 1.00: range “B;”)	B (values between 0.31 and 1.00: range “B;”)	–	A (values between 0.81 and 1.10: range “A”)	A (values between 0.81 and 1.10: range “A”)
